Reference: patent US20230256059A1, “COMPOSITIONS FOR TREATING RESPIRATORY TRACT INFECTION AND USES THEREOF” (Lateral IP Pty Ltd, priority 2020, published 2023)
Where two headings read alike, the source gives them in different places. Bridge positions count the residues as written; N and C are the ends. Peptide text beside a SMILES is read from it.

Experiments:
SARS-CoV-2 = SARS-CoV-2 infection of Vero cells, cytopathic effect inhibition assay; type: cell-based
HKx31 (H3N2) IAV [1] = assay: Titres of infectious virus in lung homogenates by standard plaque assay on MDCK cells; type: in vivo, C57BL/6 mice; details: day 4 post-infection; for reduction in levels of infectious virus in lung tissues: daily therapeutic 20 mg/kg intranasal from day 1
Procedure: (§1) For virus infection studies, groups of 8 male C57BL/6 mice were randomized. […] Bronchoalveolar lavage (BAL) fluid was immediately obtained following euthanisation by flushing the lungs three times with 1 mL of PBS. Lungs were then removed and frozen immediately in liquid nitrogen. Titres of infectious virus in lung homogenates were determined by standard plaque assay on MDCK cells.

BAL cells = type: in vivo, C57BL/6 mice; details: day 4 post-infection
[2] = system: IL-6, MCP-1/CCL2, IFNγ, IL-10, IL-12p70, TNFα, IFNα, IFNβ, IFN λ2/3; assay: Quantification of cytokines in mouse BAL fluid and sera (CBA, ELISA); type: in vivo, C57BL/6 mice; details: day 4 post-infection
Procedure: as §1
To detect cytokines, BAL fluid was collected and stored at −80° C. Levels of IL-6, MCP-1/CCL2, IFNγ, IL-10, IL-12p70, and TNFα proteins were determined by cytokine bead array (CBA) using the mouse inflammation kit (Becton Dickinson). Levels of mouse IFNα were determined by sandwich ELISA using mouse monoclonal clone F18 (Thermo Scientific) and rabbit polyclonal antibodies (PBL) (Thomas et al., 2014). Levels of mouse IFNβ were determined by sandwich ELISA using mouse monoclonal clone 7F-D3 (Abcam) and rabbit polyclonal antibodies (PBL) (Thomas et al., 2014). Mouse IFN λ2/3 was quantified by ELISA (R&D Systems).

[3] = system: respiratory tract infection by a virus; assay: Case studies: oral AOD9604 in subjects with flu-like symptoms; type: in vivo, human
From the text: The subject is a person who presented with flu-like symptoms. The subject reported to have been free of flu-like symptoms over the past 8 years.
The subject developed a very sore throat. On awakening the next day, the sore throat was more severe and their nose was running (rhinorrhea) and becoming worse throughout the day. Other symptoms that developed during the day included: • a persistent deep phlegmy cough; • high temperature; • body sweats; • chills; • muscle soreness; and • fatigue.
Later that evening, the subject developed a loss of appetite, and an exacerbation of chills, body sweats, rhinorrhoea and persistent coughing. At around 8 pm that evening, the subject was administered ˜1 mg AOD9604 (SEQ ID NO:2), orally.
The subject is a person who in the afternoon presented with the flu, with symptoms including a persistent deep phlegmy cough, high temperature, body sweats, chills, muscle soreness and fatigue. The subject was administered ˜1 mg AOD9604 (SEQ ID NO:2), orally. The subject recalls sleeping well that evening.

[4] = 20 mg/kg intranasal every 48 h
HKx31 = HKx31 infection of human PBECs, infectious virus in cell supernatants; type: cell-based; details: 24 hours following HKx31 infection
HKx31 (H3N2) IAV [5] = system: HKx31 (H3N2) IAV; parameters: species or system C57BL/6 mice; details: mouse, in vivo; for IAV-associated lethality: 5 mg/kg
HKx31 (H3N2) IAV [6] = assay: Assessment of lung oedema and vascular leakage; parameters: species or system C57BL/6 mice; details: mouse, in vivo
[7] = cited from earlier work
[8] = daily therapeutic 20 mg/kg intranasal from day 1
[9] = prophylactic 20 mg/kg intranasal, every 48 h

With `CC[C@H](C)[C@H](NC(=O)[C@H](CCCNC(=N)N)NC(=O)[C@H](CC(C)C)NC(=O)[C@@H](N)Cc1ccc(O)cc1)C(=O)N[C@H](C(=O)N[C@@H](CCC(N)=O)C(=O)N[C@H]1CSSC[C@@H](C(=O)NCC(=O)N[C@@H](Cc2ccccc2)C(=O)O)NC(=O)[C@H](CO)NC(=O)CNC(=O)[C@H](CCC(=O)O)NC(=O)[C@H](C(C)C)NC(=O)[C@H](CO)NC(=O)[C@H](CCCNC(=N)N)NC1=O)C(C)C` [LAT8881, H-YLRIVQCRSVEGSCGF-OH] (H-YLRIVQCRSVEGSCGF-OH; disulfide 7-14) the “SARS-CoV-2 infection of Vero cells (cytopathic effect inhibition)” value (SARS-CoV-2) was “did not alter SARS-CoV-2 infection of Vero cells”, the “reduction in levels of infectious virus in lung tissues” value (HKx31 (H3N2) IAV [1]) was 1.5 fold and the “reduction in infectious viral loads in the lung” value (HKx31 (H3N2) IAV [1]; prophylactic: 20 mg/kg intranasal 24 h prior to infection, then every 48 h) was 1.6 fold. For the same compound, the “inflammatory Ly6C+ macrophages in the airways” value (from here on “inflammatory Ly6C+ macrophages”) (BAL cells; [8]) was “significantly fewer”, the “neutrophils in BAL” value (BAL cells; [8]) was “significantly fewer” and the “total BAL cellularity” value (BAL cells; [8]) was “significantly reduced”. The “total numbers of dendritic cells” value (BAL cells; [8]) was “comparable to PBS-treated infected controls”, the “dendritic cells in the airways” value (BAL cells; [9]) was “no significant numerical difference” and the “inflammatory Ly6C+ macrophages” value (BAL cells; [9]) was “no significant numerical difference”. For the same compound, the “leukocyte cell death (Annexin V and PI staining of BAL cells)” value (BAL cells; [9]) was “no significant differences”, the “macrophages in BAL” value (BAL cells; [9]) was “significantly fewer” and the “neutrophils in BAL” value (BAL cells; [9]) was “significantly fewer”. For the same compound, the “total BAL cellularity” value (BAL cells; [9]) was “significantly reduced”, the “IL-6 in the BAL fluid” value [2, 8] was “significantly reduced” and the “TNFα levels in BAL fluid” value [2, 8] was “less profound reduction”. The “concentration of IFN λ2/3 in BAL fluid” value [2, 8] was “not significantly different”, the “concentration of IFNα in BAL fluid” value [2, 8] was “not significantly different” and the “concentration of IFNβ in BAL fluid” value [2, 8] was “not significantly different”. For the same compound, the “concentration of IL-10 in BAL fluid” value [2, 8] was “not significantly different”, the “concentration of IL-12p70 in BAL fluid” value [2, 8] was “not significantly different” and the “levels of CCL2 in BAL fluid” value [2, 8] was “limited levels of CCL2”. The “reduction of IFNγ in BAL fluid” value [2, 8] was 2 fold, the “reduction of IL-6 in the serum” value [2, 8] was “approximately 1.6 fold” and the “concentration of CCL2 in BAL fluid” value [2, 9] was “comparable with PBS-treated IAV infected controls”. For the same compound, the “concentration of IL-6 in BAL fluid” value [2, 9] was “comparable with PBS-treated IAV infected controls”, the “concentration of IL-10 in BAL fluid” value [2, 9] was “comparable with PBS-treated IAV infected controls” and the “concentration of IL-12p70 in BAL fluid” value [2, 9] was “comparable with PBS-treated IAV infected controls”. The “concentration of TNFα in BAL fluid” value [2, 9] was “comparable with PBS-treated IAV infected controls”, the “levels of IFN λ2/3” value [2, 9] was “no significant differences” and the “levels of IFNα” value [2, 9] was “no significant differences”. For the same compound, the “levels of IFNβ” value [2, 9] was “no significant differences”, the “reduction of IFNγ in BAL fluid” value [2, 9] was 2 fold and the “reduction of IL-6 in the serum” value [2, 9] was 1.5 fold. The “remaining symptoms on waking about 7 hours later” value ([3]; Case study 1: ~1 mg orally) was “the only remaining symptoms were a runny nose and a slight cough”, the “symptoms of the flu by the morning” value ([3]; Case study 2: ~1 mg orally) was “all symptoms of the flu had disappeared except for a slight runny nose and a dry cough” and the “time until reported symptom-free” value ([3]; Case study 2: ~1 mg orally, after the morning following dosing) was “around 24 hours”. The “alleviation of symptoms of respiratory tract infection (conclusion of case studies)” value ([3]; ~1 mg orally, two case studies) was “capable of alleviating the symptoms of respiratory tract infection by a virus”, the “weight loss or clinical signs of disease in uninfected mice” value [4] was “did not result in weight loss or any clinical signs of disease” and the “levels of infectious virus in cell supernatants” value (HKx31) was “no significant impact”. For the same compound, the “clinical signs of disease (weight loss, limited mobility, laboured breathing)” value (HKx31 (H3N2) IAV [5]) was “reduced clinical signs of disease including weight loss”, the “delay of IAV-associated lethality” value (HKx31 (H3N2) IAV [5]) was 48 to 72 h and the “onset of clinical signs of severe disease (weight loss, limited mobility, laboured breathing)” value (HKx31 (H3N2) IAV [5]) was “delayed the onset of clinical signs of severe disease”. For the same compound, the “survival of mice (from 0% in PBS controls)” value (HKx31 (H3N2) IAV [5]) was “approximately 30%”, the IAV-associated lethality (HKx31 (H3N2) IAV [5]) was “delayed IAV-associated lethality” and the “BAL fluid protein concentrations (vascular leakage)” value (HKx31 (H3N2) IAV [6]) was “significantly reduced”. For the same compound, the lung wet-to-dry ratios (HKx31 (H3N2) IAV [6]) was “no significant differences”.

For “H-CRSVEGSCGF-OH (cysteine pairing not given here; listed as Homo sapiens) [LAT9991F]”, the “reduction in levels of infectious virus in lung tissues” value (HKx31 (H3N2) IAV [1]) was 2.4 fold, the “inflammatory Ly6C+ macrophages” value (BAL cells; [8]) was “significantly fewer” and the “neutrophils in BAL” value (BAL cells; [8]) was “significantly fewer”. The “numbers of macrophages in BAL” value (BAL cells; [8]) was “reduced numbers of macrophages”, the “total BAL cellularity” value (BAL cells; [8]) was “significantly reduced” and the “total numbers of dendritic cells” value (BAL cells; [8]) was “comparable to PBS-treated infected controls”. For the same compound, the “TNFα levels in BAL fluid” value [2, 8] was “less profound reduction”, the “concentration of IFN λ2/3 in BAL fluid” value [2, 8] was “not significantly different” and the “concentration of IFNα in BAL fluid” value [2, 8] was “not significantly different”. For the same compound, the “concentration of IFNβ in BAL fluid” value [2, 8] was “not significantly different”, the “concentration of IL-10 in BAL fluid” value [2, 8] was “not significantly different” and the “concentration of IL-12p70 in BAL fluid” value [2, 8] was “not significantly different”. For the same compound, the “reduction of IFNγ in BAL fluid” value [2, 8] was 2.3 fold, the “reduction of IL-6 in the serum” value [2, 8] was “approximately 1.6 fold” and the “stability as metabolite in human serum” value [7] was “known stable metabolite of LAT8881 in human serum”. For the same compound, the IAV-associated lethality (HKx31 (H3N2) IAV [5]) was “delayed IAV-associated lethality” and the lung wet-to-dry ratios (HKx31 (H3N2) IAV [6]) was “no significant differences”.
